Laboratory results taken from patent US20230310428A1, “EGFR INHIBITOR AND PREPARATION METHOD AND USE THEREOF” (HONGYUN BIOTECH CO., LTD., priority 2020, published 2023).
Where two headings read alike, the source gives them in different places.

Experiments:
Test in all cases: Growth inhibitory activity of compounds on BaF3 cell lines stably transfected with kinase (MTS, 48 h)
Assay type in all cases: cell-based
[1] = target: T1, various mutants of kinase EGFR (BaF3 cell lines stably transfected with kinase) (Homo sapiens, UniProt P00533)
T1 construct: other: BaF3 cells stably transfected with EGFR Δ19Del; MTS, 48 h; other: BaF3 cell line stably transfected with EGFR Δ19Del
T1 sequence (P00533 with tags, fused parts or gaps DEL746-750): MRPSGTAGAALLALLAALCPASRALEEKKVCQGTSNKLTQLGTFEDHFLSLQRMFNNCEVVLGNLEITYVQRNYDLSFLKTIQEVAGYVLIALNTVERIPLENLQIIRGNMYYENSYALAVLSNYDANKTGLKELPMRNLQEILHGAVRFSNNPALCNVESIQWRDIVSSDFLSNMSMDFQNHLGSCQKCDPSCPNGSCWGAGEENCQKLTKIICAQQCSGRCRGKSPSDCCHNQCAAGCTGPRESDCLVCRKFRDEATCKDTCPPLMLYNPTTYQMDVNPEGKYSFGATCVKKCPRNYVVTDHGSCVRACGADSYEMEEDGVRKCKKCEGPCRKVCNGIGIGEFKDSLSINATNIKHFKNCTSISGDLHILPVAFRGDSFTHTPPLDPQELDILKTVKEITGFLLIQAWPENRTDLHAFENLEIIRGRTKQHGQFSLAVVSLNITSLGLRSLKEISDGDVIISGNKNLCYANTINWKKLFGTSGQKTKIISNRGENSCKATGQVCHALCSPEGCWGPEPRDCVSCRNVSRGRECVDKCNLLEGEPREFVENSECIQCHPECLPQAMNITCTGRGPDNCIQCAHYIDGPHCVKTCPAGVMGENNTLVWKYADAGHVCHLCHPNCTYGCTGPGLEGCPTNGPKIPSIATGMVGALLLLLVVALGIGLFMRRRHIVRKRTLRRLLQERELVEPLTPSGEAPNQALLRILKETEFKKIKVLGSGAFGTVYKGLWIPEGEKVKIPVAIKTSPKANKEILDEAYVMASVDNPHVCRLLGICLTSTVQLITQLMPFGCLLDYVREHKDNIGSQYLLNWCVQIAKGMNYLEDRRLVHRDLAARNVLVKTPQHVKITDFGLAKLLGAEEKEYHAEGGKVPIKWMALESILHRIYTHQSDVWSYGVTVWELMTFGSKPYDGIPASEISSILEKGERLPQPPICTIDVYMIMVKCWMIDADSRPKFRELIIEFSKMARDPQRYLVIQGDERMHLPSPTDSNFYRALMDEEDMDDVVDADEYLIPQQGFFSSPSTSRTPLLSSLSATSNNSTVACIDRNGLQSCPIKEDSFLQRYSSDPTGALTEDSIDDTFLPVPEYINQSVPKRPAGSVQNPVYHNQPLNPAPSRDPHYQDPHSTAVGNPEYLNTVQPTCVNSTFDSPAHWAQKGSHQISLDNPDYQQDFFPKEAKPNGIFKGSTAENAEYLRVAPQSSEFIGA
Summary of the method: (§1)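 Cells in DMEM or RPMI 1640 with 10% FBS were exposed to compound at 8 concentrations (top 10 µM, 1/3 steps, 0.1% DMSO) for 48 h at 37 °C, 5% CO2. MTS/PES was then added for 1-4 h and OD490 read; IC50 was fitted from growth inhibition versus 0.1% DMSO control.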

[2] = target: T2, various mutants of kinase EGFR (BaF3 cell lines stably transfected with kinase) (Homo sapiens, UniProt P00533, C797S/L858R/T790M)
T2 construct: expressed in transfected cells; host or cells: BaF3
T2 sequence (P00533 25-1210 T790M/C797S/L858R): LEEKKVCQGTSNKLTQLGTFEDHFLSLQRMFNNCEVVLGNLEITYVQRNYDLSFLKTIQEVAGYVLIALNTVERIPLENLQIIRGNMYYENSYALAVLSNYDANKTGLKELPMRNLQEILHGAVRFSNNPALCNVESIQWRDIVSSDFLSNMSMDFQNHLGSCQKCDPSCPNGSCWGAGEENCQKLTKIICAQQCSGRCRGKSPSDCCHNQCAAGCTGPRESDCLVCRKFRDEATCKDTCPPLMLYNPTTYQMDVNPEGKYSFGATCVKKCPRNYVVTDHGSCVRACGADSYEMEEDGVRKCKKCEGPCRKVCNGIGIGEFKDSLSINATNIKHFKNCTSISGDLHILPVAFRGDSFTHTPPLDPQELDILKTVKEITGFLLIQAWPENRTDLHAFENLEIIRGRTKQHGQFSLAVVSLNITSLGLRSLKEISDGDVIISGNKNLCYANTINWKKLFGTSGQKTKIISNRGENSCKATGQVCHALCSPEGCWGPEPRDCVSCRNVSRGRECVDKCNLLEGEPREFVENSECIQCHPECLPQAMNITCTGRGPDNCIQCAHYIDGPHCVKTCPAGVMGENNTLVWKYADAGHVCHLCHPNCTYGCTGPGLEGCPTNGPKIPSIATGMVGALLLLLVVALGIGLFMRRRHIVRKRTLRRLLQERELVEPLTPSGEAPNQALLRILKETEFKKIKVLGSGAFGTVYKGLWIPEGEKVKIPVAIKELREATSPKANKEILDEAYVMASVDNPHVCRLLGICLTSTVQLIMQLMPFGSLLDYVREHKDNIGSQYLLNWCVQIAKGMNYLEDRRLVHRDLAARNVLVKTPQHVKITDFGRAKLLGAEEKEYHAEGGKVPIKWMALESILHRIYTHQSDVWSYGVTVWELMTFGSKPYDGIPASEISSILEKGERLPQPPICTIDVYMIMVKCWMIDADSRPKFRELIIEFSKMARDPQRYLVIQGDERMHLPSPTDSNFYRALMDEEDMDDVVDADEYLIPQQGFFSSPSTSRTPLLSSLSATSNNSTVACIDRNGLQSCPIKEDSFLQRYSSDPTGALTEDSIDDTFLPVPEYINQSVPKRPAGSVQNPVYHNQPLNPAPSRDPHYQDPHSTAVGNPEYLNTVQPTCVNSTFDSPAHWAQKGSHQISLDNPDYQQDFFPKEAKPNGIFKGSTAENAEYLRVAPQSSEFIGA
Summary of the method: as §1

[3] = target: T3, various mutants of kinase EGFR (BaF3 cell lines stably transfected with kinase) (Homo sapiens, UniProt P00533, L858R)
T3 construct: expressed in transfected cells; host or cells: BaF3
T3 sequence (P00533 25-1210 L858R): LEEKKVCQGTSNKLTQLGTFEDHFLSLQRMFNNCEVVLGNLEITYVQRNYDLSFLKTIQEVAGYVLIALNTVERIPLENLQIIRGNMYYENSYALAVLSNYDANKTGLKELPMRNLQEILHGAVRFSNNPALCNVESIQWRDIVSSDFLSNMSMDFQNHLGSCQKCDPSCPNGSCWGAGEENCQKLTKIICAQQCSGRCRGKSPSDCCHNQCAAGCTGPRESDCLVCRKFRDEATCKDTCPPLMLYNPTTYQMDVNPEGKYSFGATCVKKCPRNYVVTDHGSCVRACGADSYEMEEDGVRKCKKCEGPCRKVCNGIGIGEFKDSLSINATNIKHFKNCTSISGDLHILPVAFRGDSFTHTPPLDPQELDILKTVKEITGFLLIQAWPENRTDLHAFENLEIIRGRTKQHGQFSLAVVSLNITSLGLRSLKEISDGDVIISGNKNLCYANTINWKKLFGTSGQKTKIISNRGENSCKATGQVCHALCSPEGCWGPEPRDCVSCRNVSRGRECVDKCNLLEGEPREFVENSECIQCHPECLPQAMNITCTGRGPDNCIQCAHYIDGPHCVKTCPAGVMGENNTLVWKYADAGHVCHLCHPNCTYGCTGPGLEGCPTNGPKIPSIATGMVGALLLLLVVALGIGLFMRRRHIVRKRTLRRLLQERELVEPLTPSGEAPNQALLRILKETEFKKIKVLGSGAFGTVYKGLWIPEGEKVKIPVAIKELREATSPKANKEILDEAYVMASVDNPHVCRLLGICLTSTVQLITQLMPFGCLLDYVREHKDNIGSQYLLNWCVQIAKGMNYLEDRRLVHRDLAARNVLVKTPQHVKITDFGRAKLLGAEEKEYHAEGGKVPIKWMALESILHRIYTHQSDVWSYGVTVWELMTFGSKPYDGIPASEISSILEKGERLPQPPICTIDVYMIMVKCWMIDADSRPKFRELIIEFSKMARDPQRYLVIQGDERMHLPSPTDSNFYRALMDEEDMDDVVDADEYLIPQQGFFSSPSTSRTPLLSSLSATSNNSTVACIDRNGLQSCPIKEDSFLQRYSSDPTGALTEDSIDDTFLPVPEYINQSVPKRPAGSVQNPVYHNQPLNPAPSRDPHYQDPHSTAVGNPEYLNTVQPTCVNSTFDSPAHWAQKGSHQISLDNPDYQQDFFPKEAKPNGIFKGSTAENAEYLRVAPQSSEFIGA
Summary of the method: as §1

[4] = target: T4, various mutants of kinase EGFR (BaF3 cell lines stably transfected with kinase) (Homo sapiens, UniProt P00533, L858R/T790M)
T4 construct: expressed in transfected cells; host or cells: BaF3
T4 sequence (P00533 25-1210 T790M/L858R): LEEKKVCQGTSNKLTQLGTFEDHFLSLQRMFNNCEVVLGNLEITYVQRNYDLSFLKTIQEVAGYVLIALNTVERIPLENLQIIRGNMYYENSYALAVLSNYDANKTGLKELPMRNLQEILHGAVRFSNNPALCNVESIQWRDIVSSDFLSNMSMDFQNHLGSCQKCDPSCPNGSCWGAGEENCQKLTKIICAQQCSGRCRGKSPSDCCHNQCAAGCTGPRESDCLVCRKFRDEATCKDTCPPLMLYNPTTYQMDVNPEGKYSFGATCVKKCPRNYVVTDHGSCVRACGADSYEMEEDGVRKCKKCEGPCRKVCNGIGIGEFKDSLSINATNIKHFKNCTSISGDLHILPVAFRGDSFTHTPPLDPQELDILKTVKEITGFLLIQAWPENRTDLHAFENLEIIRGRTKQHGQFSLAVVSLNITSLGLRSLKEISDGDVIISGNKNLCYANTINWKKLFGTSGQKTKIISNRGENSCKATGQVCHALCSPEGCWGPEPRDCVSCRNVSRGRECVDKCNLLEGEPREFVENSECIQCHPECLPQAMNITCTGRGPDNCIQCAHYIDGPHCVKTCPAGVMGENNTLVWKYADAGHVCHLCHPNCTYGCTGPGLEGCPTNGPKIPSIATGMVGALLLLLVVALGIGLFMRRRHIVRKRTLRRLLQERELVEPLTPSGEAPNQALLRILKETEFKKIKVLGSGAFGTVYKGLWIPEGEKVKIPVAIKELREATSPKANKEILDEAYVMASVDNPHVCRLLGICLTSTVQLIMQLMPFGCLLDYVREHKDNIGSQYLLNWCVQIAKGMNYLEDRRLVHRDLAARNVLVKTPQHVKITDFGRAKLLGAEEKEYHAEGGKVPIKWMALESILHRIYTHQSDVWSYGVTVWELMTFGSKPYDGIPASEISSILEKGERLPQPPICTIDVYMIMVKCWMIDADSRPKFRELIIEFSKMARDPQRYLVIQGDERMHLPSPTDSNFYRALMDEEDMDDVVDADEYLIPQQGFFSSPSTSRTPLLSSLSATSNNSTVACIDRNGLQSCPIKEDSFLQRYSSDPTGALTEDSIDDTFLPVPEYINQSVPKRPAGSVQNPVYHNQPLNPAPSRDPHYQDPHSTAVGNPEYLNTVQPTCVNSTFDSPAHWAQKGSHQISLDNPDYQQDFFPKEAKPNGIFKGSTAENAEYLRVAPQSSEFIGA
Summary of the method: as §1

[5] = target: T5, various mutants of kinase EGFR (BaF3 cell lines stably transfected with kinase) (Homo sapiens, UniProt P00533, T790M/C797S, form not given)
T5 construct: other: BaF3 cells stably transfected with EGFR Δ19Del/T790M/C797S; MTS, 48; other: BaF3 cell line stably transfected with EGFR Δ19Del/T790M/C7
Summary of the method: as §1

[6] = target: T6, various mutants of kinase EGFR (BaF3 cell lines stably transfected with kinase) (Homo sapiens, UniProt P00533, T790M, form not given)
T6 construct: other: BaF3 cells stably transfected with EGFR Δ19Del/T790M; MTS, 48 h; other: BaF3 cell line stably transfected with EGFR Δ19Del/T790M; MTS, 48
Summary of the method: as §1

[7] = BaF3 cells stably transfected with EGFR Δ19Del, read-out: IC50, growth inhibition, Δ19Del
[8] = BaF3 cells stably transfected with EGFR L858R/T790M/C797S, read-out: IC50, growth inhibition, L858R/T790M/C797S
[9] = BaF3 cells stably transfected with EGFR L858R, read-out: IC50, growth inhibition, L858R
[10] = BaF3 cells stably transfected with EGFR L858R/T790M, read-out: IC50, growth inhibition, L858R/T790M
[11] = BaF3 cells stably transfected with EGFR Δ19Del/T790M/C797S, read-out: IC50, growth inhibition, Δ19Del/T790M/C797S
[12] = BaF3 cells stably transfected with EGFR Δ19Del/T790M, read-out: IC50, growth inhibition, Δ19Del/T790M
[13] = BaF3 cell line stably transfected with EGFR Δ19Del, read-out: Δ19Del growth inhibitory activity IC50
[14] = BaF3 cell line stably transfected with EGFR L858R/T790M/C797S, read-out: L858R/T790M/ C797S growth inhibitory activity IC50
[15] = BaF3 cell line stably transfected with EGFR L858R, read-out: L858R growth inhibitory activity IC50
[16] = BaF3 cell line stably transfected with EGFR L858R/T790M, read-out: L858R/ T790M growth inhibitory activity IC50
[17] = BaF3 cell line stably transfected with EGFR Δ19Del/T790M/C797S, read-out: Δ19Del/T790M/ C797S growth inhibitory activity IC50
[18] = BaF3 cell line stably transfected with EGFR Δ19Del/T790M, read-out: Δ19Del/ T790M growth inhibitory activity IC50

COc1cc(N2CCC(N3CCN(C)CC3)CC2)c(C)cc1Nc1ncc(F)c(Nc2ccc3nccnc3c2N(C)S(C)(=O)=O)n1 [Compound I-25]
IC50 [1, 7]: ≤ 50 nM
IC50 [2, 8]: ≤ 50 nM
IC50 [3, 9]: ≤ 50 nM
IC50 [4, 10]: ≤ 50 nM
IC50 [5, 11]: ≤ 50 nM
IC50 [6, 12]: 50 to 500 nM

CCN(c1c(Nc2nc(Nc3ccc(N4CCC(N5CCN(C)CC5)CC4)nc3OC)ncc2Cl)ccc2nccnc12)S(C)(=O)=O [Compound I-225]
IC50 [1, 7]: 50 to 500 nM
IC50 [2, 8]: 50 to 500 nM
IC50 [3, 9]: 50 to 500 nM
IC50 [4, 10]: 50 to 500 nM
IC50 [5, 11]: ≤ 50 nM
IC50 [6, 12]: 50 to 500 nM

COc1ccc(N2CCC(N3CCCC3)CC2)cc1Nc1ncc(Br)c(Nc2ccc3nccnc3c2N(C)S(C)(=O)=O)n1 [Compound I-382]
IC50 [1, 13]: 50 to 500 nM
IC50 [2, 14]: ≤ 50 nM
IC50 [3, 15]: 50 to 500 nM
IC50 [4, 16]: ≤ 50 nM
IC50 [5, 17]: 50 to 500 nM
IC50 [6, 18]: 50 to 500 nM

CCc1cc(Nc2nc(Nc3ccc4nccnc4c3N(C)S(C)(=O)=O)c3[nH]ccc3n2)c(OC(F)(F)F)cc1N1CCC(N2CCN(C)CC2)CC1 [II-1-22]
IC50 [1, 13]: 50 to 500 nM
IC50 [2, 14]: 50 to 500 nM
IC50 [3, 15]: 500 to 2500 nM
IC50 [4, 16]: 50 to 500 nM
IC50 [5, 17]: 50 to 500 nM
IC50 [6, 18]: 50 to 500 nM

COc1cc(N2CCC(N(C)C)C2)c(C)cc1Nc1ncc(Br)c(Nc2ccc3nccnc3c2N(C)S(=O)(=O)C2CC2)n1 (stereo not drawn) [Compound I-222]
IC50 [1, 7]: 50 to 500 nM
IC50 [2, 8]: ≤ 50 nM
IC50 [3, 9]: 50 to 500 nM
IC50 [4, 10]: ≤ 50 nM
IC50 [5, 11]: ≤ 50 nM
IC50 [6, 12]: ≤ 50 nM

COc1cc(N2CCC(N3CCN(C)CC3)CC2)c(CC2CC2)cc1Nc1ncc(Br)c(Nc2ccc3nccnc3c2NS(C)(=O)=O)n1 [Compound I-408]
IC50 [1, 13]: 50 to 500 nM
IC50 [2, 14]: ≤ 50 nM
IC50 [3, 15]: ≤ 50 nM
IC50 [4, 16]: ≤ 50 nM
IC50 [5, 17]: ≤ 50 nM
IC50 [6, 18]: ≤ 50 nM

C=Cc1cc(Nc2ncc(F)c(Nc3ccc4nccnc4c3N(C)S(C)(=O)=O)n2)c(OC(F)(F)F)cc1N1CCC(N2CCN(C)CC2)CC1 [Compound I-180]
IC50 [1, 7]: ≤ 50 nM
IC50 [2, 8]: 50 to 500 nM
IC50 [3, 9]: ≤ 50 nM
IC50 [4, 10]: ≤ 50 nM
IC50 [5, 11]: ≤ 50 nM
IC50 [6, 12]: 50 to 500 nM

CCc1cc(Nc2ncc(Br)c(Nc3ccc4nccnc4c3N(C)S(=O)(=O)C(F)(F)F)n2)c(OC)cc1N1CCN(C)CC1 [Compound I-260]
IC50 [1, 7]: 500 to 2500 nM
IC50 [2, 8]: 50 to 500 nM
IC50 [3, 9]: 500 to 2500 nM
IC50 [4, 10]: 50 to 500 nM
IC50 [5, 11]: ≤ 50 nM
IC50 [6, 12]: 50 to 500 nM

C=Cc1cc(Nc2ncc(Br)c(Nc3ccc4nccnc4c3N(C)S(=O)(=O)C3CC3)n2)c(OC(F)(F)F)cc1N1CCC(N2CCN(C)CC2)CC1 [Compound I-219]
IC50 [1, 7]: 50 to 500 nM
IC50 [2, 8]: 50 to 500 nM
IC50 [3, 9]: 50 to 500 nM
IC50 [4, 10]: 50 to 500 nM
IC50 [5, 11]: ≤ 50 nM
IC50 [6, 12]: ≤ 50 nM

COc1cc(N2CCN(C)CC2)c(C)cc1Nc1ncc(Cl)c(Nc2ccc3nccnc3c2N(C)S(C)(=O)=O)n1 [Compound I-171]
IC50 [1, 7]: 50 to 500 nM
IC50 [2, 8]: ≤ 50 nM
IC50 [3, 9]: ≤ 50 nM
IC50 [4, 10]: ≤ 50 nM
IC50 [5, 11]: ≤ 50 nM
IC50 [6, 12]: ≤ 50 nM

CCc1cc(Nc2ncc(Br)c(Nc3ccc4nccnc4c3N(C)S(=O)(=O)C(F)(F)F)n2)c(OC(F)(F)F)cc1N1CCC(N2CCN(C)CC2)CC1 [Compound I-126]
IC50 [1, 7]: 500 to 2500 nM
IC50 [2, 8]: 50 to 500 nM
IC50 [3, 9]: 500 to 2500 nM
IC50 [4, 10]: 500 to 2500 nM
IC50 [5, 11]: 50 to 500 nM
IC50 [6, 12]: 50 to 500 nM

CCc1cc(Nc2ncc(F)c(Nc3ccc4nccnc4c3N(C)S(C)(=O)=O)n2)c(OC)cc1N1CCN(C)CC1 [Compound I-186]
IC50 [1, 7]: 50 to 500 nM
IC50 [2, 8]: ≤ 50 nM
IC50 [3, 9]: ≤ 50 nM
IC50 [4, 10]: 50 to 500 nM
IC50 [5, 11]: ≤ 50 nM
IC50 [6, 12]: 50 to 500 nM

CCc1cc(Nc2ncc([N+](=O)[O-])c(Nc3ccc4nccnc4c3N(C)S(C)(=O)=O)n2)c(OC)nc1N1CCC(N2CCN(C)CC2)CC1 [Compound I-190]
IC50 [1, 7]: 50 to 500 nM
IC50 [2, 8]: 50 to 500 nM
IC50 [3, 9]: 50 to 500 nM
IC50 [4, 10]: ≤ 50 nM
IC50 [5, 11]: ≤ 50 nM
IC50 [6, 12]: ≤ 50 nM

CCc1cc(Nc2ncc(CC)c(Nc3ccc4nccnc4c3N(C)S(C)(=O)=O)n2)c(OC)cc1N1CCC(N2CCN(C)CC2)CC1 [Compound I-318]
IC50 [1, 13]: ≤ 50 nM
IC50 [2, 14]: ≤ 50 nM
IC50 [3, 15]: ≤ 50 nM
IC50 [4, 16]: ≤ 50 nM
IC50 [5, 17]: ≤ 50 nM
IC50 [6, 18]: ≤ 50 nM

CCc1cc(Nc2nc(Nc3ccc4nccnc4c3N(C)S(C)(=O)=O)c3[nH]ccc3n2)c(OC)cc1N1CCC(N(C)C)C1 (stereo not drawn) [II-1-36]
IC50 [1, 13]: 500 to 2500 nM
IC50 [2, 14]: 500 to 2500 nM
IC50 [3, 15]: 500 to 2500 nM
IC50 [4, 16]: 500 to 2500 nM
IC50 [5, 17]: 500 to 2500 nM
IC50 [6, 18]: 500 to 2500 nM
